Data reported in patent US20160346249A1 (priority 2012, published 2016).
“And” between values parts separate entries of the source, which are not always exact repeats. Identical values can stand only once.

Experiments:
[1] = In vitro metabolism in human hepatocytes; details: male, human, hepatocytes, 4 h, 87 μM
Protocol: Cryopreserved human hepatocytes (male) that are prepared by XenoTech, LLC (Lenexa, Kans.), are thawed on the day of use and resuspended in Waymouth's incubation media. The enzymatic activity of hepatocytes is monitored using 7-ethoxycoumarin and 7-hydroxycoumarin as substrates. […] The incubations are carried out for 4 hours with 1×10^6 viable cells/ml. […] At 0 and 4 hour, cell suspensions are extracted using two volumes of ice cold methanol. After centrifugation, the extracts are stored at −20° C. until further sample processing. The solvent in the samples are dried under a stream of nitrogen, and resuspended in methanol:water (1:1) before analysis.
The extracts of the 4 hour incubation mixture are analyzed by liquid chromatography/electrospray ionization-mass spectrometry (LC/ESI-MS) in the positive and negative ion modes to screen for possible metabolites. HPLC Methods 1 and 2 are used to find potential metabolites, and the HPLC and mass spectrometry systems are described in Table 56. The same instrumentation and methods in HPLC Method 1 are used in HPLC Method 2 with the exception that the mobile phases and gradient are changed to 0.4% HCOOH in H2O for mobile A and CH3OH for mobile phase B. The mass spectrometer is LCQ™ Ion Trap Mass Spectrometer and is in either the positive or negative electrospray mode with the ion spray set at 4.5 kV. The capillary temperature is 250° C., the nitrogen sheath gas flow rate is ˜80 unit, the auxiliary nitrogen gas flow rate is 20 unit, and the collision gas is helium.

[2] = Single dose 300 mg / 450 mg pharmacokinetic, safety and tolerability study in healthy male and female subjects; details: for renal clearance, individual subjects: listed as DOV 21,947; for CL renal: urine and plasma, renal clearance; for CL renal / Percent of Dose in Urine (0-24 hr): Mean (SD)
Description: Fourteen subjects, divided equally between males and females, were enrolled in the study and randomized between test article (5/sex) and placebo (2/sex). […] All subjects met the inclusion and exclusion criteria for entry into the study as detailed in the protocol and signed an informed consent form.
The subjects were confined to the clinical study site from Day −1 to the morning of Day 2, when they underwent a brief physical examination, clinical laboratory tests, and a physician visit before they were discharged. On Day 7, they reported to the clinical site again and were confined to the site until the morning of Day 9. At that time, they underwent a complete physical examination, clinical laboratory tests, and a physician's visit before they were discharged from the study. All subjects were fasted overnight on Days −1 and 7 from approximately 22:00 to approximately 4 hours post-dose on Days 1 and 8, at which time they received a standard lunch.
Subjects that received the placebo (2/sex) ingested six identical looking capsules with no drug. […] Capsules on both days were ingested with 240 mL water. […] Samples were collected into lithium heparin-containing Vacutainers® and centrifuged at approximately 3000 rpm to obtain the plasma fraction. The plasma was split into two polypropylene tubes and stored at −20° C. […] The urine volumes were recorded and an aliquot was stored for drug concentration measurements.
Validated LC/MS/MS assays were used for analyses; the assay range for both analytes in plasma and urine were 5.00 to 2000 ng/mL.
Plasma concentration-time data for each subject were analyzed with WinNonlin, version 4.1 (Pharsight Corporation, Mountain View, Calif.) using a non-compartmental model. […] Plasma concentrations listed as not detected (ND) or below the lower limit of quantitation (LLOQ) were set to zero. The values of Cmax and Tmax were the observed values for each subject. AUC0-t was determined using the linear trapezoidal rule whenever the concentration data were increasing and the logarithmic trapezoidal rule any time that the concentration data were decreasing. The apparent λz was calculated as the negative slope of the log-linear terminal portion of the blood concentration-time curve using linear regression. To allow for accurate calculation of λz, a minimum of three observations, selected by WinNonlin, was used. The t½ was calculated as ln 2/λz. AUC0-t was extrapolated to infinity (AUC0-∞) as follows: AUC0-∞=AUC0-t+Clast/λz where Clast is the last quantifiable concentration. The apparent oral clearance (CL/F) was calculated as Dose/AUC0-∞. The apparent oral volume of distribution (Vz/F) was calculated as Dose/λz×AUC0-∞. The mean residence time from time zero to infinity (MRT0-∞) was calculated as AUMC0-∞/AUC0-∞.

[3] = both, human, plasma, oral, 300 mg
[4] = both, human, plasma, oral, 450 mg
[5] = both, human, plasma, po, 300 mg
[6] = both, human, plasma, po, 450 mg
[7] = female, human, plasma, po, 300 mg
[8] = female, human, plasma, po, 450 mg
[9] = male, human, plasma, po, 300 mg
[10] = male, human, plasma, po, 450 mg
[11] = single oral 300 mg DOV 21,947 HCl IR, Female, N = 5
[12] = single oral 300 mg DOV 21,947 HCl IR, Male, N = 5
[13] = single oral 300 mg DOV 21,947 HCl IR, mean, N = 10
[14] = single oral 450 mg DOV 21,947 HCl IR, Female, N = 5
[15] = single oral 450 mg DOV 21,947 HCl IR, Male, N = 5

With Clc1ccc([C@]23CNC[C@H]2C3)cc1Cl [amitifadine, (+)-1-(3,4-dichlorophenyl)-3-azabicyclo[3.1.0]hexane] the “remains unchanged after 4 hour incubation” value [1] was 82.4%, the “ingested dose in urine (0-24 hr)” value ([2]; 300 mg) was 0.4% and the “renal clearance, individual subjects” value ([2]; 300 mg single oral dose) was 40.6 mL/h and 62.1 mL/h and 32.1 mL/h and 47.7 mL/h and 39.2 mL/h and 66.6 mL/h and 91.7 mL/h and 47.3 mL/h and 76.4 mL/h. For the same compound, the “ingested dose in urine (0-24 hr)” value ([2]; 450 mg) was 0.3%, the “renal clearance, individual subjects” value ([2]; 450 mg single oral dose) was 42.2 mL/h and 31.9 mL/h and 25.4 mL/h and 22.3 mL/h and 40.1 mL/h and 34.1 mL/h and 32.1 mL/h and 79.2 mL/h and 33.7 mL/h and 47.3 mL/h and the oral clearance ([2]; 300 and 450 mg) was 13.2 to 13.6 L/h. The Cmax [2, 3] was 3370 ng/mL, the Tmax [2, 3] was 2.15 h and the Cmax [2, 4] was 5110 ng/mL. The MRT [2, 4] was 6.3 to 6.4 h, the Tmax [2, 4] was 2.43 h and the half-life ([2]; both, human, plasma, oral, 450 mg, elimination half-life, 300 and 450 mg) was ~4 h. It also gave an AUC(0-inf) [2, 5] of 19700 ng·h/mL, an AUC(0-t) [2, 5] of 19400 ng·h/mL and a Cmax [2, 5] of 3370 ng/mL. The MRT inf [2, 5] was 6.29 h, the Tmax [2, 5] was 2.15 h and the half-life ([2]; both, human, plasma, po, 300 mg, t½ (Harmonic mean), single oral 300 mg DOV 21,947 HCl IR, N = 10) was 4.2 h. The half-life ([2]; both, human, plasma, po, 300 mg, t½, single oral 300 mg DOV 21,947 HCl IR, arithmetic mean, N = 10) was 4.24 h, the AUC(0-inf) [2, 6] was 30500 ng·h/mL and the AUC(0-t) [2, 6] was 30000 ng·h/mL. For the same compound, the Cmax [2, 6] was 5110 ng/mL, the MRT inf [2, 6] was 6.39 h and the Tmax [2, 6] was 2.43 h. For the same compound, the half-life ([2]; both, human, plasma, po, 450 mg, t½ (Harmonic mean), single oral 450 mg DOV 21,947 HCl IR, N = 10) was 3.77 h, the half-life ([2]; both, human, plasma, po, 450 mg, t½, single oral 450 mg DOV 21,947 HCl IR, arithmetic mean, N = 10) was 3.82 h and the CL renal ([2]; both, human, po, 300 mg, 300 mg single oral dose) was 0.943 mL/min. The CL renal ([2]; both, human, po, 450 mg, 450 mg single oral dose) was 0.647 mL/min, the AUC(0-inf) [2, 7] was 20500 ng·h/mL and the AUC(0-t) [2, 7] was 20100 ng·h/mL. It also gave a Cmax [2, 7] of 3260 ng/mL, an MRT inf [2, 7] of 6.51 h and a Tmax [2, 7] of 2.7 h. For the same compound, the half-life ([2]; female, human, plasma, po, 300 mg, t½ (Harmonic mean), single oral 300 mg DOV 21,947 HCl IR, N = 5) was 4.1 h, the half-life ([2]; female, human, plasma, po, 300 mg, t½, single oral 300 mg DOV 21,947 HCl IR, N = 5, arithmetic mean) was 4.14 h and the AUC(0-inf) [2, 8] was 29900 ng·h/mL. For the same compound, the AUC(0-t) [2, 8] was 29500 ng·h/mL, the Cmax [2, 8] was 4540 ng/mL and the MRT inf [2, 8] was 6.42 h. It also gave a Tmax [2, 8] of 3 h, a half-life ([2]; female, human, plasma, po, 450 mg, t½ (Harmonic mean), single oral 450 mg DOV 21,947 HCl IR, N = 5) of 3.57 h and a half-life ([2]; female, human, plasma, po, 450 mg, t½, single oral 450 mg DOV 21,947 HCl IR, N = 5, arithmetic mean) of 3.58 h. For the same compound, the AUC(0-inf) [2, 9] was 19000 ng·h/mL, the AUC(0-t) [2, 9] was 18600 ng·h/mL and the Cmax [2, 9] was 3480 ng/mL. The MRT inf [2, 9] was 6.07 h, the Tmax [2, 9] was 1.6 h and the half-life ([2]; male, human, plasma, po, 300 mg, t½ (Harmonic mean), single oral 300 mg DOV 21,947 HCl IR, N = 5) was 4.31 h. It also gave a half-life ([2]; male, human, plasma, po, 300 mg, t½, single oral 300 mg DOV 21,947 HCl IR, N = 5, arithmetic mean) of 4.34 h, an AUC(0-inf) [2, 10] of 31100 ng·h/mL and an AUC(0-t) [2, 10] of 30500 ng·h/mL. For the same compound, the Cmax [2, 10] was 5680 ng/mL, the MRT inf [2, 10] was 6.35 h and the Tmax [2, 10] was 1.85 h. For the same compound, the half-life ([2]; male, human, plasma, po, 450 mg, t½ (Harmonic mean), single oral 450 mg DOV 21,947 HCl IR, N = 5) was 4 h, the half-life ([2]; male, human, plasma, po, 450 mg, t½, single oral 450 mg DOV 21,947 HCl IR, N = 5, arithmetic mean) was 4.06 h and the CL/F [2, 11] was 13.0 L/h. It also gave a λz [2, 11] of 0.169 h⁻¹, a CL/F [2, 12] of 14.2 L/h and a λz [2, 12] of 0.161 h⁻¹. The “Percent of Dose in Urine (0-24 hr)” value ([2]; single oral 300 mg DOV 21,947 HCl IR) was 0.411 (0.121) Percent of Dose, the “Mean Amount in Urine” value ([2]; single oral 300 mg DOV 21,947 HCl IR, Period 0-1 hr) was 17.0 µg and the “Mean Amount in Urine” value ([2]; single oral 300 mg DOV 21,947 HCl IR, Period 1-2 hr) was 115 µg. For the same compound, the “Mean Amount in Urine” value ([2]; single oral 300 mg DOV 21,947 HCl IR, Period 2-4 hr) was 279 µg, the “Mean Amount in Urine” value ([2]; single oral 300 mg DOV 21,947 HCl IR, Period 4-8 hr) was 371 µg and the “Mean Amount in Urine” value ([2]; single oral 300 mg DOV 21,947 HCl IR, Period 8-12 hr) was 137 µg. For the same compound, the “Mean Amount in Urine” value ([2]; single oral 300 mg DOV 21,947 HCl IR, Period 12-24 hr) was 115 µg, the “Mean Amount in Urine” value ([2]; single oral 300 mg DOV 21,947 HCl IR, Total (0-24 hr)) was 1064 µg and the CL/F [2, 13] was 13.6 L/h. It also gave a λz [2, 13] of 0.165 h⁻¹, a CL/F [2, 14] of 13.7 L/h and a λz [2, 14] of 0.194 h⁻¹. The CL/F [2, 15] was 12.8 L/h, the λz [2, 15] was 0.173 h⁻¹ and the “Percent of Dose in Urine (0-24 hr)” value ([2]; single oral 450 mg DOV 21,947 HCl IR) was 0.299 (0.143) Percent of Dose. The “Mean Amount in Urine” value ([2]; single oral 450 mg DOV 21,947 HCl IR, Period 0-1 hr) was 9.4 µg, the “Mean Amount in Urine” value ([2]; single oral 450 mg DOV 21,947 HCl IR, Period 1-2 hr) was 66.3 µg and the “Mean Amount in Urine” value ([2]; single oral 450 mg DOV 21,947 HCl IR, Period 2-4 hr) was 322 µg. For the same compound, the “Mean Amount in Urine” value ([2]; single oral 450 mg DOV 21,947 HCl IR, Period 4-8 hr) was 402 µg, the “Mean Amount in Urine” value ([2]; single oral 450 mg DOV 21,947 HCl IR, Period 8-12 hr) was 195 µg and the “Mean Amount in Urine” value ([2]; single oral 450 mg DOV 21,947 HCl IR, Period 12-24 hr) was 164 µg. For the same compound, the “Mean Amount in Urine” value ([2]; single oral 450 mg DOV 21,947 HCl IR, Total (0-24 hr)) was 1159 µg and the λz ([2]; single oral 450 mg DOV 21,947 HCl IR, mean, N = 10) was 0.184 h⁻¹.
